Drawing on ChEMBL document CHEMBL3352036, “Identification of 4'-O-β-D-glucosyl-5-O-methylvisamminol as a novel epigenetic suppressor of histone H3 phosphorylation at Ser10 and its interaction with 14-3-3ε” (Bioorg Med Chem Lett, 2014), this text covers inhibition and Activity for four compounds.

Series [1] concerns HT-29. As to the kind of experiment: Inhibition of histone H3 Ser10 phosphorylation in human HT-29 cells at 10 uM incubated for 1 hr by Western blotting method. In kind it is functional, cell-based. (In general: Immunoblotting shows a protein as a band on a membrane.)
Series [2] concerns HT-29. Kind of series: Inhibition of c-Jun protein expression in human HT-29 cells at 10 uM incubated for 1 hr by Western blotting method. In kind it is functional, cell-based.
Series [3] concerns HT-29. Kind of series: Inhibition of 14-3-3epsilon protein expression in human HT-29 cells at 10 uM incubated for 1 to 4 hrs by Western blotting method. In kind it is functional, cell-based.
The target in series [4] is T1, 14-3-3 protein epsilon (Homo sapiens) (UniProt P62258).
T1 sequence (whole entry): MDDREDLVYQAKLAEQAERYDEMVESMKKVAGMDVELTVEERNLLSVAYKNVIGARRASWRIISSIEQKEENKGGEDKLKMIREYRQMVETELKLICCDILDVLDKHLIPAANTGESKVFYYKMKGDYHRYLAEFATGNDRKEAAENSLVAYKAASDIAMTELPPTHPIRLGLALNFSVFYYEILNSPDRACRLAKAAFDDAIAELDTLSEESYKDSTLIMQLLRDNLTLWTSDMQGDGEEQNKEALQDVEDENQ
As to the kind of experiment: Inhibition of recombinant 14-3-3epsilon protein (unknown origin) expression in Escherichia coli assessed as reduction in 14-3-3epsilon and histone H3 Ser10 interaction using human HT-29 cells lysates at 1 uM incubated for 1 hr by Western blotting based GST-pull down assay.

Series [5] deals with T2, Aurora kinase A (Homo sapiens) (UniProt O14965).
T2 sequence (whole entry): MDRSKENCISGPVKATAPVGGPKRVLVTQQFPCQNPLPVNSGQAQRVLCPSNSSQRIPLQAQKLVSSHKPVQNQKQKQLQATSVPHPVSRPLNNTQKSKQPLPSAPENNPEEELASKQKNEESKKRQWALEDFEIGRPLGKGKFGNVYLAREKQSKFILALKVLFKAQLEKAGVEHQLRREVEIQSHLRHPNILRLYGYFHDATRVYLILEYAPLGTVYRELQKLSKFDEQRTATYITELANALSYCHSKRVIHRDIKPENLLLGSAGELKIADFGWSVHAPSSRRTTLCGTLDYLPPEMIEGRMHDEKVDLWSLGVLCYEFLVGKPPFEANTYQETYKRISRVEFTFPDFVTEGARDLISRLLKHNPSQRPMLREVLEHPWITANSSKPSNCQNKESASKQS
As to the kind of experiment: Inhibition of Aurora A kinase phosphorylation in human HT-29 cells at 10 uM incubated for 15 to 120 mins by Western blotting method. In kind it is cell-based.

The target of series [6] is Aurora kinase B (Homo sapiens) (UniProt Q96GD4). Kind of series: Inhibition of Aurora B kinase phosphorylation in human HT-29 cells at 10 uM incubated for 15 to 120 mins by Western blotting method. In kind it is cell-based.
Sequence of Aurora kinase B (Homo sapiens) (Q96GD4 whole entry): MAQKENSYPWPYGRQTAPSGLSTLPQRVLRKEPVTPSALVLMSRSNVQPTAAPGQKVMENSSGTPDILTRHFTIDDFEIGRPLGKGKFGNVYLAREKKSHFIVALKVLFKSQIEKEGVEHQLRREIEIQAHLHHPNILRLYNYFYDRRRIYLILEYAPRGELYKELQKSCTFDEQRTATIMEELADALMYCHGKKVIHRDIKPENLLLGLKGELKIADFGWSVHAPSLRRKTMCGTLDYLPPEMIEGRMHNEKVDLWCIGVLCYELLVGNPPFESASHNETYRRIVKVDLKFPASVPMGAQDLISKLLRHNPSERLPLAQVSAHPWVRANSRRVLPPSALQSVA
Series [7] addresses T3, Aurora kinase C (Homo sapiens) (UniProt Q9UQB9).
T3 sequence (whole entry): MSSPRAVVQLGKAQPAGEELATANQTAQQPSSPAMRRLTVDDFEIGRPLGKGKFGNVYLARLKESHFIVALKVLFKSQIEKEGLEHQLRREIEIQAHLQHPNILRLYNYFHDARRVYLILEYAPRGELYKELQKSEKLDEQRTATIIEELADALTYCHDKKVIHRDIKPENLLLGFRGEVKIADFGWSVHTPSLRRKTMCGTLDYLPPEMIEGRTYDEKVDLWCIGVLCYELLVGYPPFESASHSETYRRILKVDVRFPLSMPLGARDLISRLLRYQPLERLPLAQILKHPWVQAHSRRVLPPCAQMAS
As to the kind of experiment: Inhibition of Aurora C kinase phosphorylation in human HT-29 cells at 10 uM incubated for 15 to 120 mins by Western blotting method. In kind it is cell-based.

The target in series [8] is Mitogen-activated protein kinase 8 (Homo sapiens) (UniProt P45983). Kind of series: Inhibition of JNK1 phosphorylation in human HT-29 cells at 10 uM incubated for 15 to 120 mins by Western blotting method. In kind it is cell-based.
Sequence of Mitogen-activated protein kinase 8 (Homo sapiens) (P45983 whole entry): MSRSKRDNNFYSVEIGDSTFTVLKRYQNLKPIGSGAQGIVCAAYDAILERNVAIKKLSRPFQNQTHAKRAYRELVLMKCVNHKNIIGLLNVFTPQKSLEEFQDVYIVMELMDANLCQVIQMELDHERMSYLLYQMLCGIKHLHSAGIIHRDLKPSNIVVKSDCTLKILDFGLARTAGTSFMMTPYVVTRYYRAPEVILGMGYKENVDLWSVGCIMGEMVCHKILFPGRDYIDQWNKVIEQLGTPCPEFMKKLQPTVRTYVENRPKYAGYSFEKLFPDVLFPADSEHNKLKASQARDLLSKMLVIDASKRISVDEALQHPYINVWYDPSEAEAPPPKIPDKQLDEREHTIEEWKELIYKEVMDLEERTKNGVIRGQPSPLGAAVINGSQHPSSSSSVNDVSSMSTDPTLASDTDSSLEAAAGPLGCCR
In series [9] the target is Mitogen-activated protein kinase 9 (Homo sapiens) (UniProt P45984). As to the kind of experiment: Inhibition of JNK2 phosphorylation in human HT-29 cells at 10 uM incubated for 15 to 120 mins by Western blotting method. In kind it is cell-based.
Sequence of Mitogen-activated protein kinase 9 (Homo sapiens) (P45984 whole entry, looked up): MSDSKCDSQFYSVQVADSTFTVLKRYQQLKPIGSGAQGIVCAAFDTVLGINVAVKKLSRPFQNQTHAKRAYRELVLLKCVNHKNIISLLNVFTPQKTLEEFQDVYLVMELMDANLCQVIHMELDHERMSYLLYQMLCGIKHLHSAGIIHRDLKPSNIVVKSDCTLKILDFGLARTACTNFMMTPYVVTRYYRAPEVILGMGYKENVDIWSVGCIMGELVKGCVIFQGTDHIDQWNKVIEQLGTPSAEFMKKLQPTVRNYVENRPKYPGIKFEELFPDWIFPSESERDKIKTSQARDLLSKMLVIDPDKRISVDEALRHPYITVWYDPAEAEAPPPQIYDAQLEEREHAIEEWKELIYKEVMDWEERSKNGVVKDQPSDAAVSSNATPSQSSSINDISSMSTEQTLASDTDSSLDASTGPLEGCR
In series [10] the target is MAP kinase p38 (Homo sapiens) (UniProt O15264+Q15759+Q16539+P53778). Kind of series: Inhibition of p38 phosphorylation in human HT-29 cells at 10 uM incubated for 15 to 120 mins by Western blotting method. In kind it is cell-based.
In series [11] the test system is HT-29. Kind of series: Induction of Nrf2 protein protein expression in human HT-29 cells at 10 uM incubated for 6 to 24 hrs by Western blotting method. In kind it is functional, cell-based.
The subject of series [12] is HT-29. Kind of series: Induction of HO-1 protein protein expression in human HT-29 cells at 10 uM incubated for 6 to 24 hrs by Western blotting method. In kind it is functional, cell-based.
Series [13] relates to HT-29. As to the kind of experiment: Toxicity against human HT-29 cells assessed as effect on cell viability at 10 uM incubated for 24 hrs by MTT assay. In kind it is cell-based. To be noted: ht-29, 24 h.
Series [14] has as its system HT-29. Kind of series: Induction of cell cycle arrest in human HT-29 cells assessed as accumulation at subG1 phase at 10 uM incubated for 6 hrs by propidium iodide staining based FACS assay (reference value: 0.79%). In kind it is functional. In general terms: Flow cytometry measures light scatter and fluorescence of single cells or particles in a stream.
Series [15] has as its system HT-29. As to the kind of experiment: Induction of cell cycle arrest in human HT-29 cells assessed as accumulation at G0/G1 phase at 10 uM incubated for 6 hrs by propidium iodide staining based FACS assay (reference value: 60.39%). In kind it is functional.
In series [16] the test system is HT-29. Kind of series: Induction of cell cycle arrest in human HT-29 cells assessed as accumulation at S phase at 10 uM incubated for 6 hrs by propidium iodide staining based FACS assay (reference value: 21.94%). The series is classed as functional.
Series [17] concerns HT-29. As to the kind of experiment: Induction of cell cycle arrest in human HT-29 cells assessed as accumulation at G2/M phase at 10 uM incubated for 6 hrs by propidium iodide staining based FACS assay (reference value: 14.8%). The series is classed as functional.
Series [18] deals with HT-29. As to the kind of experiment: Induction of cell cycle arrest in human HT-29 cells assessed as accumulation at subG1 phase at 10 uM incubated for 24 hrs by propidium iodide staining based FACS assay (reference value: 0.79%). In kind it is functional.
Series [19] deals with HT-29. Kind of series: Induction of cell cycle arrest in human HT-29 cells assessed as accumulation at G0/G1 phase at 10 uM incubated for 24 hrs by propidium iodide staining based FACS assay (reference value: 60.39%). The series is classed as functional.
The subject of series [20] is HT-29. As to the kind of experiment: Induction of cell cycle arrest in human HT-29 cells assessed as accumulation at S phase at 10 uM incubated for 24 hrs by propidium iodide staining based FACS assay (reference value: 21.94%). The series is classed as functional.
For series [21], the system named is HT-29. Kind of series: Induction of cell cycle arrest in human HT-29 cells assessed as accumulation at G2/M phase at 10 uM incubated for 24 hrs by propidium iodide staining based FACS assay (reference value: 14.8%). The series is classed as functional.

Calls of active or inactive are those of the source. The calls are words filed in the database; no cut-off is given here.

On to `C[C@H]1[C@H](C)CC[C@]2(C)CC[C@]3(C)C(=CC[C@@H]4[C@@]5(C)CC[C@H](O)C(C)(C)[C@@H]5CC[C@]43C)[C@H]12`, for which the inhibition entry in the series on HT-29 [1] and in the series on HT-29 [2] was “Active” in each case. The inhibition result (in the series on HT-29 [3]; in series [4]) was “inactive” throughout.

Take `CC1(C)CC[C@]2(C(=O)O)CC[C@]3(C)C(=CC[C@@H]4[C@@]5(C)CC[C@H](O)C(C)(C)[C@@H]5CC[C@]43C)[C@@H]2C1`: the inhibition entry in the series with HT-29 [1] and in the series on HT-29 [2] was “Active” each time. Further, the inhibition entry (with HT-29 [3]; in series [4]) was “inactive” throughout.

As to `CCCCCCCCCCCCC/C=C1/C(=O)O[C@H](C)[C@@H]1O`, the inhibition result with HT-29 [1] and in the series with HT-29 [2] was “Active” each time. Further, the inhibition result (in the series on HT-29 [3]; in series [4]) was “inactive” each time.

As for `COc1c2c(cc3oc(C)cc(=O)c13)OC(C(C)(C)O[C@H]1O[C@@H](CO)[C@H](O)[C@@H](O)[C@@H]1O)C2` (stereo partly drawn), the inhibition result (with HT-29 [1]; in the series with HT-29 [2]; in series [4]; in series [5]; in series [6]; in [7]) was “Active” each time. The inhibition result in series [8] and in series [9] was “Active” each time. The inhibition result (in the series on HT-29 [3]; in series [10]) was “inactive” in each case. For the same compound, the result in the series on HT-29 [11] and in the series on HT-29 [12] was Active. Moreover, the Activity result with HT-29 [13] is on record as “Non-toxic”; in the series with HT-29 [14] it was 1.06%; in the series on HT-29 [15], 58.61%; with HT-29 [16] it was 16.85%; with HT-29 [17], 21.86%; in the series on HT-29 [18], 0.88%. The Activity in the series on HT-29 [19] was 59.07%; in the series on HT-29 [20], 15.97%; in the series on HT-29 [21], 22.29%.
